The values that follow come from ChEMBL document CHEMBL5579832, “Design, synthesis, and biological evaluation of pyrido[2,3-d]pyrimidin-7(8H)-one derivatives as potent USP1 inhibitors” (Eur J Med Chem, 2024).

SMILES strings stand for the structures. The source made the active and inactive calls. No cut-off for these calls is given here.

For data set [1], the target named is T1, Ubiquitin carboxyl-terminal hydrolase 1/WD repeat-containing protein 48 (Homo sapiens) (UniProt O94782+Q8TAF3). Briefly: Inhibition of USP1/UAF1 in human NCI-H1299 cells assessed as increase in Ub-PCNA levels at 20 nM incubated for 24 hrs by Western blot analysis. The class given is cell-based. On the technique in general: In western blotting, separated proteins are transferred to a membrane and probed.

Data set [2] relates to MDA-MB-436. Briefly: Induction of cell cycle arrest in human MDA-MB-436 cells assessed as increase in cells at S phase at 1 uM incubated for 24 hrs by PI staining based flow cytometry analysis. The class given is functional.
The target in data set [3] is Ubiquitin carboxyl-terminal hydrolase 9X (Homo sapiens) (UniProt Q93008). Nature of the data set: Inhibition of USP9X (unknown origin) using diubiquitin as a substrate at 0 to 10 uM preincubated for 15 mins followed by substrate addition and measured after 2 hrs by SDS-PAGE analysis. The settings on record: dose 0-10 µM, time 135.0 min.
Ubiquitin carboxyl-terminal hydrolase 9X (Homo sapiens), sequence (Q93008 whole entry): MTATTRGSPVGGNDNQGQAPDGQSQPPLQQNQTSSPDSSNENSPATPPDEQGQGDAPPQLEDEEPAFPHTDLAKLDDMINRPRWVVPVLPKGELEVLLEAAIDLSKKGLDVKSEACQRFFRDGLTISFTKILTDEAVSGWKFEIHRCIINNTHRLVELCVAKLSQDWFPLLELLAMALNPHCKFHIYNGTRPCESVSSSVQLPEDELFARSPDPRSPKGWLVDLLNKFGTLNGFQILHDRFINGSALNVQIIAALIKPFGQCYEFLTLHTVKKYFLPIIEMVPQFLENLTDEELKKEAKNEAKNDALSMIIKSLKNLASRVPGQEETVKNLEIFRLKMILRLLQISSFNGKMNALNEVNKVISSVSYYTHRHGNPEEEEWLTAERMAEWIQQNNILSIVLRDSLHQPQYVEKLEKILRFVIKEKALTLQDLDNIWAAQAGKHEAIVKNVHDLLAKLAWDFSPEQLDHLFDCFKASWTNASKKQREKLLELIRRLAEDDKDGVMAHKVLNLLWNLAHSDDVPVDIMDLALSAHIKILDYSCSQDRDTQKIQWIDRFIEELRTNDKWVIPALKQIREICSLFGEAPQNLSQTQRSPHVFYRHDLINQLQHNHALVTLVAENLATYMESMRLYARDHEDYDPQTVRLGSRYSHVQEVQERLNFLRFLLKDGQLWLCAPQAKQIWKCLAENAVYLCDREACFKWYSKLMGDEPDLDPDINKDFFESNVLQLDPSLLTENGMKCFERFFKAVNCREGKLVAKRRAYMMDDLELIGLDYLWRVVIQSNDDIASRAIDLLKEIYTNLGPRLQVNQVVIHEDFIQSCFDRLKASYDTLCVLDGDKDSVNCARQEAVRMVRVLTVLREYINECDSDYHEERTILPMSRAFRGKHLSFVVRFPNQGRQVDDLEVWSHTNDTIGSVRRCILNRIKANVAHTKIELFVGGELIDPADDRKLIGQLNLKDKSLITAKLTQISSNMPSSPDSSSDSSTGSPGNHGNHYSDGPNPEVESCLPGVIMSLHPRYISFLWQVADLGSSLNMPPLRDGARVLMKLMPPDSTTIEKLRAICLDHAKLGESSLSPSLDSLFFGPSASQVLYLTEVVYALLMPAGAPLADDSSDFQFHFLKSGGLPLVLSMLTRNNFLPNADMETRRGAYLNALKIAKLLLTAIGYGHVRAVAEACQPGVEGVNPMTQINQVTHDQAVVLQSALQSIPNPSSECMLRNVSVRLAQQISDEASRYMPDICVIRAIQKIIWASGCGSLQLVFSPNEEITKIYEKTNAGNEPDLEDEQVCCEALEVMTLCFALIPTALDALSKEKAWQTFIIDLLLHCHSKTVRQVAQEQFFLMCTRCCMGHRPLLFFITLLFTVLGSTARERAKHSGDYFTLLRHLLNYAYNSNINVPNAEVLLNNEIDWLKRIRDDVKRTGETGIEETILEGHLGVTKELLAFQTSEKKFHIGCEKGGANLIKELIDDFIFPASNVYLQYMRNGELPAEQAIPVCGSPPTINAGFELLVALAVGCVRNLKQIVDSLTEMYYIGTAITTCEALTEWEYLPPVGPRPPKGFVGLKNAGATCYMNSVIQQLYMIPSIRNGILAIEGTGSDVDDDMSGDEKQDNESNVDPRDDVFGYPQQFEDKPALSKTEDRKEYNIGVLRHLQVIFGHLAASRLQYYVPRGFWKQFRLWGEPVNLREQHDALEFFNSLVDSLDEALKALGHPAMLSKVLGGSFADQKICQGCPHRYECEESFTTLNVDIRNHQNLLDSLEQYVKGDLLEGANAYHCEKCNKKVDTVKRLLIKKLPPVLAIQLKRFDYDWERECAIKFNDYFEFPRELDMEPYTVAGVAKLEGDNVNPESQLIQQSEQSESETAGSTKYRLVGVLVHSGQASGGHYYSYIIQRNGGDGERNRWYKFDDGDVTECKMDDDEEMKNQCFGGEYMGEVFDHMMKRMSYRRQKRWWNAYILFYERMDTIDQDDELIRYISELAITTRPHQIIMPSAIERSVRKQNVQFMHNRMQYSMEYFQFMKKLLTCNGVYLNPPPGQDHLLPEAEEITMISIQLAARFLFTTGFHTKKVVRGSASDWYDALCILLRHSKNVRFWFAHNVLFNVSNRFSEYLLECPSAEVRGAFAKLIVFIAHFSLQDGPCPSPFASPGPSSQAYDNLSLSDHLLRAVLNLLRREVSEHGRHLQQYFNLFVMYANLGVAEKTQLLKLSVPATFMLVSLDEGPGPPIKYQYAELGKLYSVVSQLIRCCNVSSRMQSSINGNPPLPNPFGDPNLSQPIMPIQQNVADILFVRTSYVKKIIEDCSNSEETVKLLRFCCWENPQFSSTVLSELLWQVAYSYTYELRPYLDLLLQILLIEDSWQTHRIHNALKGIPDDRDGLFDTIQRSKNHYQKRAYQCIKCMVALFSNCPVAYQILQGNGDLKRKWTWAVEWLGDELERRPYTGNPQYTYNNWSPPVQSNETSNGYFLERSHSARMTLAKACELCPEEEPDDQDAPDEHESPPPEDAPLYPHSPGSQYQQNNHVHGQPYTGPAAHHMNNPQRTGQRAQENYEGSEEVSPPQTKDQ
The target in data set [4] is T1, Ubiquitin carboxyl-terminal hydrolase 1/WD repeat-containing protein 48 (Homo sapiens). Nature of the data set: Non competitive inhibition of USP1/UAF1 complex (unknown origin) using Ub-7-amido-4-methylcoumarin as substrate at 0 to 200 nM incubated for 120 mins by Lineweaver-burk plot analysis. It counts as protein-complex assay. The settings on record: dose 0-200 nM.

The test system of data set [5] is Olaparib-resistant MDA-MB-436. Nature of the data set: Induction of cell cycle arrest in human Olaparib-resistant MDA-MB-436 cell assessed as accumulation of cells in S phase at 1 uM incubated for 24 hrs in the presence of olaparib by PI staining based flow cytometry analysis. It counts as functional. A general note: Flow cytometry measures light scatter and fluorescence of single cells or particles in a stream.

Data set [6] deals with Olaparib-resistant MDA-MB-436. Nature of the data set: Induction of cell cycle arrest in human Olaparib-resistant MDA-MB-436 cell assessed as accumulation of cells in G2/M phase at 1 uM incubated for 24 hrs in the presence of olaparib by PI staining based flow cytometry analysis. It counts as functional.
In data set [7] the target is T2, Ubiquitin carboxyl-terminal hydrolase 8 (Homo sapiens) (UniProt P40818).
T2 sequence (whole entry): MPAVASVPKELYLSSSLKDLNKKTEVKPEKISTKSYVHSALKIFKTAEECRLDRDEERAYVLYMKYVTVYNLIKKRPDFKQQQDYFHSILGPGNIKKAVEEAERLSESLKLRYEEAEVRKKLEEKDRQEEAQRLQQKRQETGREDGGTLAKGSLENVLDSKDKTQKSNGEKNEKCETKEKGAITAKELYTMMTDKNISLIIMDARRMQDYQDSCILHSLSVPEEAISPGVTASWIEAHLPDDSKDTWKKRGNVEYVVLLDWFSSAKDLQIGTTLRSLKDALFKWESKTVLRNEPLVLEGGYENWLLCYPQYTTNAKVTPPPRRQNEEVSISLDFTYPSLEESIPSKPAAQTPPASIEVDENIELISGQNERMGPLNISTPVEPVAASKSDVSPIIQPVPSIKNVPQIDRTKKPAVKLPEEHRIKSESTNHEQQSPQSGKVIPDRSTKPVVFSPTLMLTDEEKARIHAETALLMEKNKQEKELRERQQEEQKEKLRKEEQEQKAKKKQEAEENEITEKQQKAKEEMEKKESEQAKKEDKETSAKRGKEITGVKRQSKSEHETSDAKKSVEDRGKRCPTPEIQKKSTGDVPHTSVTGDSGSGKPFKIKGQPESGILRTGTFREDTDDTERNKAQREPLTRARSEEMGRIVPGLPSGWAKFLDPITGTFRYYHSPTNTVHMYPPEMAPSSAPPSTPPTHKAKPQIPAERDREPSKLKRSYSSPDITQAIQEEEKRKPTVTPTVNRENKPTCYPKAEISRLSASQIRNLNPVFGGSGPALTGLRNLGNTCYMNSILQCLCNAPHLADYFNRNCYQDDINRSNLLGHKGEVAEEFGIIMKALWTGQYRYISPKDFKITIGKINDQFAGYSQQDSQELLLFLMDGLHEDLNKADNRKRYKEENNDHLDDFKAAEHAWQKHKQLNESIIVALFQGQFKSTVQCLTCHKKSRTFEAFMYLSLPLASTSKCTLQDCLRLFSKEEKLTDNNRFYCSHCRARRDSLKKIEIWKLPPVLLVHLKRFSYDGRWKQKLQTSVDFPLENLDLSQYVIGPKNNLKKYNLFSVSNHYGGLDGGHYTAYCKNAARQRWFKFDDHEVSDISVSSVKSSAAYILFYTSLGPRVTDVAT
Briefly: Inhibition of recombinant human 6His-tagged USP8 using diubiquitin as a substrate at 0 to 10 uM preincubated for 15 mins followed by substrate addition and measured after 2 hrs by SDS-PAGE analysis. The settings on record: dose 0-10 µM, time 135.0 min.

Data set [8] is described as follows: Half life in male ICR mouse at 10 mg/kg, po administered as single dose and measured after 24 hrs. It counts as ADME, organism-based. The conditions noted are these: in vivo.
Data set [9] concerns the target T1, Ubiquitin carboxyl-terminal hydrolase 1/WD repeat-containing protein 48 (Homo sapiens). Nature of the data set: Inhibition of USP1/UAF1 in human MDA-MB-436 cells assessed as increase in Ub-PCNA level at 20 nM incubated for 24 hrs by Western blot analysis. It counts as cell-based.
Data set [10] has the same target. Briefly: Inhibition of recombinant human 6His-tagged USP1-6His-tagged UAF1 complex using diubiquitin as a substrate assessed as inhibiting the cleavage of K63-linked di-Ub at 0 to 10 uM preincubated for 15 mins followed by substrate addition and measured after 2 hrs by SDS-PAGE analysis. The class given is protein-complex assay. The conditions noted are these: dose 0-10 µM, time 135.0 min.

Broadly, the half-life is how long it takes for the measured level to halve. A higher half-life goes with slow decline. For the molecule `COc1ncnc(C2CC2)c1-c1ncc2ccc(=O)n(Cc3ccc(-c4nc(C(F)(F)F)cn4C(C)C)cc3)c2n1`, the outcome in data set [1], in data set [2], in data set [5] and in data set [6] was Active. In addition, the inhibition result in data set [3] and in data set [7] was “inactive” in each case. The inhibition entry in [4], in data set [9] and in data set [10] was “Active” each time. Further, the half-life in [8] was 457 min.
